In article PMC11180795 (Frontiers in Pharmacology, 2024):

How the values were obtained:
[1] = system: IL-6; experiment: Th1/Th2 cytokine measurement (Cytometric Bead Array) in LPS-stimulated Raw 264.7 cells, IL-6; assay type: cell-based, Murine; conditions: compound at 20 µM, LPS 0.1 μg/mL, 24 h; stimulated untreated control 175.96 pg/mL
Description: Raw 264.7 cells were seeded at 2 × 10^5 cells/mL in a 48-well microplate and allowed to adhere for 24 h, then treated with LPS 0.1 μg/mL and with compounds (1), (5) and (6) at 20 µM. Untreated cells and indomethacin (10 µM) were used as controls. After 24 h of incubation, the supernatant was collected and the amount of pro-inflammatory Th1 cytokines (IFN-γ, TNF-α, and IL-2) and anti-inflammatory Th2 cytokines (IL-4, IL-6, and IL-10) released measured. The experiment was performed according to the manufacturer’s instructions using BD™ Cytometric Bead Array (CBA) […] Th1/Th2 Cytokine Kit (BD-Biosciences), and data were acquired on a BD LSR Fortessa™ cell analyzer flow cytometer.

[2] = biological target: T1, COX-1 (Mus musculus, UniProt P22437); experiment: Fluorometric COX activity assay in lysate of LPS-treated Raw 264.7 cells, COX-1; assay type: cell-based, Murine; conditions: compound at 20 µM, LPS 0.1 μg/mL, 24 h; untreated control 85.19 µU/mg
T1 construct: The cell lysate was centrifuged at 12000 x g for 3 min and the supernatant was collected for COX activity assay; endogenous in cells
T1 sequence (P22437 27-602): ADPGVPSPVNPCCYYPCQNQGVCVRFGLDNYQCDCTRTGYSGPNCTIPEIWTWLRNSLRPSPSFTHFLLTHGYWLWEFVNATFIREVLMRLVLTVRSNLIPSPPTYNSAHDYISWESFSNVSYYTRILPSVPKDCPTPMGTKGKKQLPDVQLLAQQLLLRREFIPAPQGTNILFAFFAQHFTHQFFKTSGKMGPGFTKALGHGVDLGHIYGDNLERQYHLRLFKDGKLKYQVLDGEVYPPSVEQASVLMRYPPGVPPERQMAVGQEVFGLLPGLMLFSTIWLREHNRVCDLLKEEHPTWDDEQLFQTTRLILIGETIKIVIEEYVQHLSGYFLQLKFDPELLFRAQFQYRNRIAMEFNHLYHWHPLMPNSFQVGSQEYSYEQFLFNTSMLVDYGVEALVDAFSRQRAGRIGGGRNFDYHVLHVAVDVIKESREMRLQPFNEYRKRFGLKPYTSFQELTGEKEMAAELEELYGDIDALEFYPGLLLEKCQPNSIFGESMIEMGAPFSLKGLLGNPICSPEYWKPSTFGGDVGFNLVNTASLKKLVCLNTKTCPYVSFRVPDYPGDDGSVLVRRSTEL
Description: The fluorometric cyclooxygenase activity assay kit (Biovision) was used to evaluate the activity of COX-1 and COX-2 enzymes. Raw 264.7 cells were seeded at 2 × 10^5 cells/mL in a 48-well microplate, and allowed to adhere for 24 h, then treated with LPS 0.1 μg/mL and compounds (1), (5) and (6) at 20 µM against Raw 264.7 cells. After 24 h the cyclooxygenase enzyme (COX-1 and COX-2) activity assay was performed. Cells were detached with TNE buffer (Tris 40 mM, NaCl 150 mM, EDTA 1 mM) and washed with PBS (1x), then re-suspended in 1 mL PBS (1x), transferred into 1.5 mL tube, and centrifuged at 500 x g for 3 min. The pellet was then re-suspended in 0.5 mL of lysis buffer with a protease inhibitor cocktail, vortexed, and incubated at 4°C for 5 min. The cell lysate was centrifuged at 12000 x g for 3 min and the supernatant was collected for COX activity assay. The COX activity was assessed using the fluorometric cyclooxygenase activity assay kit (Biovision) following the manufacturer’s instructions. The assay includes COX-1 and COX-2 specific inhibitors to differentiate the activity of COX-1 and COX-2 as well as other peroxidases. Indomethacin (10 µM) was used as a standard drug and appropriate controls were also included.

| COX-1 activity [2] [µU/mg] | Compound | IL-6 level [1] [pg/mL] |
| --- | --- | --- |
| 52.55 | CC(C)=CCc1c2c(c3oc4c(O)cccc4c(=O)c3c1O)C=CC(C)(C)O2 [Compound 1, Ananixanthone] | 144.25 |
| 32.28 | CC(C)=CCC/C(C)=C/C[C@]12C[C@@H](CC=C(C)C)C(C)(C)[C@](C/C=C(\C)CCC=C(C)C)(C(=O)C(C(=O)c3ccc(O)c(O)c3)=C1O)C2=O [Compound 5, Guttiferone O] | – |
